Test results as given in ChEMBL document CHEMBL4813932, “Terpenoid Constituents of Perovskia artemisioides Aerial Parts with Inhibitory Effects on Bacterial Biofilm Growth” (2021).

How the values were obtained:
Assay in all cases: microbe, parasite or virus in culture
Type in all cases: functional
[1] = tested on: Escherichia coli; conditions: DSM 8579, time 48 hrs
Description: Antibiofilm activity against Escherichia coli DSM 8579 assessed as inhibition of biofilm formation at 40 ug/ml measured after 48 hrs by crystal violet staining based assay relative to control

[2] = tested on: Staphylococcus aureus; conditions: ATCC 25923, time 48 hrs
Description: Antibiofilm activity against Staphylococcus aureus ATCC 25923 assessed as inhibition of biofilm formation at 4 ug/ml measured after 48 hrs by crystal violet staining based assay relative to control

[3] = tested on: Escherichia coli; conditions: DSM 8579, time 48 hrs; remark: listed apart in the source
Description: Antibiofilm activity against Escherichia coli DSM 8579 assessed as inhibition of bacterial metabolism within the biofilm at 80 ug/ml measured after 48 hrs by MTT assay relative to control

[4] = tested on: Escherichia coli; conditions: DSM 8579, time 48 hrs; remark: listed apart in the source
Description: Antibiofilm activity against Escherichia coli DSM 8579 assessed as inhibition of biofilm formation at 80 ug/ml measured after 48 hrs by crystal violet staining based assay relative to control

[5] = tested on: Pseudomonas aeruginosa; conditions: ATCC 50071, time 48 hrs
Description: Antibiofilm activity against Pseudomonas aeruginosa ATCC 50071 assessed as inhibition of bacterial metabolism within the biofilm at 4 ug/ml measured after 48 hrs by MTT assay relative to control

[6] = tested on: Pseudomonas aeruginosa; conditions: ATCC 50071, time 48 hrs; remark: listed apart in the source
Description: Antibiofilm activity against Pseudomonas aeruginosa ATCC 50071 assessed as inhibition of biofilm formation at 4 ug/ml measured after 48 hrs by crystal violet staining based assay relative to control

[7] = tested on: Listeria monocytogenes; conditions: ATCC 7644, time 48 hrs
Description: Antibiofilm activity against Listeria monocytogenes ATCC 7644 assessed as inhibition of bacterial metabolism within the biofilm at 8 ug/ml measured after 48 hrs by MTT assay relative to control

[8] = tested on: Escherichia coli; conditions: DSM 8579, time 48 hrs; remark: listed apart in the source
Description: Antibiofilm activity against Escherichia coli DSM 8579 assessed as inhibition of bacterial metabolism within the biofilm at 40 ug/ml measured after 48 hrs by MTT assay relative to control

[9] = tested on: Listeria monocytogenes; conditions: ATCC 7644, time 48 hrs; remark: listed apart in the source
Description: Antibiofilm activity against Listeria monocytogenes ATCC 7644 assessed as inhibition of bacterial metabolism within the biofilm at 4 ug/ml measured after 48 hrs by MTT assay relative to control

[10] = tested on: Staphylococcus aureus; conditions: ATCC 25923, time 48 hrs; remark: listed apart in the source
Description: Antibiofilm activity against Staphylococcus aureus ATCC 25923 assessed as inhibition of bacterial metabolism within the biofilm at 8 ug/ml measured after 48 hrs by MTT assay relative to control

[11] = tested on: Staphylococcus aureus; conditions: ATCC 25923, time 48 hrs; remark: listed apart in the source
Description: Antibiofilm activity against Staphylococcus aureus ATCC 25923 assessed as inhibition of biofilm formation at 8 ug/ml measured after 48 hrs by crystal violet staining based assay relative to control

[12] = tested on: Listeria monocytogenes; conditions: ATCC 7644, time 48 hrs; remark: listed apart in the source
Description: Antibiofilm activity against Listeria monocytogenes ATCC 7644 assessed as inhibition of biofilm formation at 4 ug/ml measured after 48 hrs by crystal violet staining based assay relative to control

[13] = tested on: Pseudomonas aeruginosa; conditions: ATCC 50071, time 48 hrs; remark: listed apart in the source
Description: Antibiofilm activity against Pseudomonas aeruginosa ATCC 50071 assessed as inhibition of biofilm formation at 8 ug/ml measured after 48 hrs by crystal violet staining based assay relative to control

[14] = tested on: Staphylococcus aureus; conditions: ATCC 25923, time 48 hrs; remark: listed apart in the source
Description: Antibiofilm activity against Staphylococcus aureus ATCC 25923 assessed as inhibition of bacterial metabolism within the biofilm at 4 ug/ml measured after 48 hrs by MTT assay relative to control

[15] = tested on: Listeria monocytogenes; conditions: ATCC 7644, time 48 hrs; remark: listed apart in the source
Description: Antibiofilm activity against Listeria monocytogenes ATCC 7644 assessed as inhibition of biofilm formation at 8 ug/ml measured after 48 hrs by crystal violet staining based assay relative to control

[16] = tested on: Pseudomonas aeruginosa; conditions: ATCC 50071, time 48 hrs; remark: listed apart in the source
Description: Antibiofilm activity against Pseudomonas aeruginosa ATCC 50071 assessed as inhibition of bacterial metabolism within the biofilm at 8 ug/ml measured after 48 hrs by MTT assay relative to control

Compound | inhibition at 40 µg/mL [1] [%] | inhibition at 4 µg/mL [2] [%] | inhibition at 80 µg/mL [3] [%] | inhibition at 80 µg/mL [4] [%] | inhibition at 4 µg/mL [5] [%] | inhibition at 4 µg/mL [6] [%] | inhibition at 8 µg/mL [7] [%] | inhibition at 40 µg/mL [8] [%] | inhibition at 4 µg/mL [9] [%] | inhibition at 8 µg/mL [10] [%] | inhibition at 8 µg/mL [11] [%] | inhibition at 4 µg/mL [12] [%] | inhibition at 8 µg/mL [13] [%] | inhibition at 4 µg/mL [14] [%] | inhibition at 8 µg/mL [15] [%] | inhibition at 8 µg/mL [16] [%]
COc1c(C(C)C)cc2c(c1O)[C@]1(C(=O)O)CCCC(C)(C)[C@@H]1CC2 (relative stereo) | 92.6 | 0 | 89.1 | 92.8 | 27.2 | 27.2 | 17.8 | 46.3 | 6.5 | 8 | 8 | 6.5 | 46.8 | 0 | 17.8 | 46.8
CC(=O)O[C@H]1CC(C)(C)[C@@H]2CC[C@]3(C)C[C@]12CC[C@H]3O | 0 | 3.2 | 42 | 29.6 | 30.4 | 15.2 | 29.4 | 0 | 20.6 | 4.7 | 16.4 | 14.6 | 45.9 | 0 | 23.3 | 45.9
CO[C@H]1c2cc(C(C)C)c(O)c(O)c2[C@@]23CCCC(C)(C)[C@@H]2[C@@H]1OC3=O | 32.9 | 23.5 | 27.3 | 47.4 | 3.1 | 14.7 | 29.8 | 0 | 0 | 22.9 | 63.3 | 16.2 | 84.7 | 9.4 | 23.8 | 30.9
CC1(C)C[C@H]2[C@H]1CC[C@]1(C)C[C@]2(O)CC[C@@H]1O | 24.3 | 0 | 57.8 | 71.9 | 0 | 42.4 | 42.2 | 38.3 | 31.1 | 48.6 | 17.9 | 8.7 | 53.6 | 33.3 | 25.7 | 24.6
C=CC(C)(O)C/C=C/C(C)(C)O (configuration not stated) | 30.4 | 13.3 | 64 | 78.6 | 68.1 | 75.9 | 38.1 | 52 | 9.1 | 44.4 | 40.7 | 78 | 84.7 | 42.2 | 85 | 71.3
CC1(C)C[C@@H](O)C[C@](C)(O)/C1=C\C(=O)O | 28.6 | 12.6 | 38.6 | 50.3 | 29.2 | 0 | 33.3 | 14.2 | 13.1 | 49.3 | 31.5 | 0 | 55.5 | 44.7 | 10.2 | 35.7
CC1(C)C[C@H](O)[C@]23CC[C@@H](O)[C@](C)(CC[C@@H]12)C3 | 3.2 | 0 | 37.5 | 45.4 | 39.8 | 39.8 | 17.8 | 1.6 | 8.7 | 0 | 0 | 8.7 | 40 | 0 | 17.8 | 40
CC(C)c1cc2c(c(O)c1O)C1=C(CC2)C(C)(C)CCC1=O [SAGEONE] | 13.7 | 0 | 24.6 | 45.5 | 0 | 0 | 0.9 | 6.8 | 0 | 0 | 0 | 0 | 0 | 0 | 0.9 | 0
COc1c(C(C)C)cc2c(c1O)[C@@]1(C(=O)O)CCCC(C)(C)[C@@H]1CC2 | 3.2 | 31.9 | 96.1 | 66.3 | 43.2 | 68.6 | 6.7 | 67.2 | 4 | 0 | 72 | 74.1 | 81.2 | 0 | 81 | 71.6
C=C1CC/C=C(/C)[C@H](O)C[C@@H]2[C@@H]1CC2(C)CO (some centres not stated) | 27.4 | 0 | 45.4 | 43.1 | 27.4 | 18.2 | 36.8 | 13.9 | 22.4 | 31.1 | 34.9 | 13.7 | 34.3 | 27.7 | 51.1 | 43.1
C=C(C)[C@@H]1CC[C@]2(C(=O)O)CC[C@]3(C)[C@H](CC[C@@H]4[C@@]5(C)CC[C@H](O)C(C)(C)[C@@H]5CC[C@]43C)[C@@H]12 [BETULINIC ACID] | 33.4 | 30.7 | 22.6 | 54.4 | 31.9 | 38 | 18.7 | 15 | 12.7 | 14 | 75.2 | 75.6 | 63.4 | 0 | 80.4 | 72.2
COc1cc2oc(-c3ccc(O)cc3)cc(=O)c2c(O)c1OC [CIRSIMARITIN] | 37.7 | 0 | 50 | 65.3 | 0 | 47.9 | 39 | 44.2 | 26.9 | 52.6 | 6.6 | 54 | 83.7 | 0 | 65.2 | 40.2
